Measurements as given in patent publication US20250215101A1, “DR5 Agonist and PLK1 Inhibitor or CDK Inhibitor Combination Therapy” (Inhibrx Biosciences, Inc., priority 2022, published 2025).

How the values were obtained:
HS-SY-II = assay: Cell viability (CellTiter-Glo) cytotoxicity assay, INBRX-109 x CDK9 or MCL-1 inhibitor matrix, 48 h, synovial sarcoma line
Protocol: (§1) On day 1, cells were seeded as follows. Monolayer cultures of each cell line (chondrosarcoma: CAL-78, OUMS-27, SW1353, and H-EMC-SS; colorectal cancer: SW620; and synovial sarcoma: HS-SY-II) were harvested for compound screening. Culture medium was aspirated, and the cells were washed once with PBS. Accutase was added and flasks were incubated at 37° C. until cells became detached. An equal volume of complete medium was added to quench the Accutase, and the cells were then pipetted up and down several times to generate a homogenous single cell suspension. The density and viability of cells was determined by Trypan Blue using a TC20 Automated Cell Counter. Experimental cells were resuspended to a concentration of 0.17×10^6/mL in Eagle's Minimum Essential Medium (EMEM)/10% FBS/Anti-Anti media (complete EMEM) and seeded in the inner wells of 384-well luminescence plates at 15 mL/well (2,500/well final). Each cell line was plated in duplicate on separate plates. Outer wells were filled with 50 mL PBS, then plates were incubated in a humidified temperature-controlled 37° C. tissue culture incubator at 5% CO2 overnight for 16 hours.
(§2) These test articles were added, in duplicate, to each cell line. The plates were then centrifuged at 400×g for 1 minute, then incubated in a 37° C. humidity-controlled tissue culture incubator (5% CO2) for 48 hours.
(§3) After incubation with the test articles, viability measurements were taken, briefly. Plates were equilibrated to room temperature for 10 minutes, then 25 μL of CellTiter-Glo 2.0® was added to each well. Plates were spun for 1 minute at 400×g, then covered and incubated in the dark for 10 minutes at room temperature. Any visible bubbles were removed with 100% ethanol vapor, then luminescence (RLU) was read on the Spectra Max M5e plate reader, using the 384-well opaque plate setting and SoftMax® Pro v5.4 software with an integration time of 50 milliseconds. To determine the effect of test articles on cell viability, raw RLU values were exported to Excel and percent survival was calculated as a percentage of vehicle control (0.5% DMSO in EMEM), where the vehicle control is set at 100%. Data was graphed in GraphPad Prism 9.

CAL-78 = assay: Cell viability (CellTiter-Glo) cytotoxicity assay, INBRX-109 x CDK9 or MCL-1 inhibitor matrix, 48 h, chondrosarcoma line
Protocol: as §1, §2, §3

H-EMC-SS = assay: as above
Protocol: as §1, §2, §3

[1] = tested on: CAL-78, OUMS-27, SW1353, H-EMC-SS, SW620, HS-SY-II; assay: Cytotoxicity screens INBRX-109 + CDK9 or MCL-1 inhibitor, summary over the cell lines; assay type: cell-based; details: combination with INBRX-109
Excerpt: Data was graphed in GraphPad Prism 9.

SW620 = assay: Cell viability (CellTiter-Glo) cytotoxicity assay, INBRX-109 x CDK9 or MCL-1 inhibitor matrix, 48 h, colorectal cancer line
Protocol: as §1, §2, §3

SW1353 = assay: Cell viability (CellTiter-Glo) cytotoxicity assay, INBRX-109 x CDK9 or MCL-1 inhibitor matrix, 48 h, chondrosarcoma line
Protocol: as §1, §2, §3

OUMS-27 = assay: as above
Protocol: as §1, §2, §3

CDK9 = CDK9 (Homo sapiens, UniProt P50750); details: cited from earlier work
CDK9, sequence (P50750 whole entry): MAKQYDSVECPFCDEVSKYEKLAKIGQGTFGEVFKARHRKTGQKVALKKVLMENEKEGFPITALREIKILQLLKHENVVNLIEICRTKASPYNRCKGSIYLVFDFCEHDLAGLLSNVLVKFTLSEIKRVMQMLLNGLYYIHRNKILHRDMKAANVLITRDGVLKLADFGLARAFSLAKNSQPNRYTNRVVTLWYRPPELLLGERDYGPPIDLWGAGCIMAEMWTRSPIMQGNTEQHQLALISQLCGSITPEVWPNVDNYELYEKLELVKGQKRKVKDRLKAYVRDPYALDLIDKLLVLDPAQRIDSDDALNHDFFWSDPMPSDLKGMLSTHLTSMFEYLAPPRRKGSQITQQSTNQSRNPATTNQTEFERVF
CDK9, sequence (O60563 whole entry partner): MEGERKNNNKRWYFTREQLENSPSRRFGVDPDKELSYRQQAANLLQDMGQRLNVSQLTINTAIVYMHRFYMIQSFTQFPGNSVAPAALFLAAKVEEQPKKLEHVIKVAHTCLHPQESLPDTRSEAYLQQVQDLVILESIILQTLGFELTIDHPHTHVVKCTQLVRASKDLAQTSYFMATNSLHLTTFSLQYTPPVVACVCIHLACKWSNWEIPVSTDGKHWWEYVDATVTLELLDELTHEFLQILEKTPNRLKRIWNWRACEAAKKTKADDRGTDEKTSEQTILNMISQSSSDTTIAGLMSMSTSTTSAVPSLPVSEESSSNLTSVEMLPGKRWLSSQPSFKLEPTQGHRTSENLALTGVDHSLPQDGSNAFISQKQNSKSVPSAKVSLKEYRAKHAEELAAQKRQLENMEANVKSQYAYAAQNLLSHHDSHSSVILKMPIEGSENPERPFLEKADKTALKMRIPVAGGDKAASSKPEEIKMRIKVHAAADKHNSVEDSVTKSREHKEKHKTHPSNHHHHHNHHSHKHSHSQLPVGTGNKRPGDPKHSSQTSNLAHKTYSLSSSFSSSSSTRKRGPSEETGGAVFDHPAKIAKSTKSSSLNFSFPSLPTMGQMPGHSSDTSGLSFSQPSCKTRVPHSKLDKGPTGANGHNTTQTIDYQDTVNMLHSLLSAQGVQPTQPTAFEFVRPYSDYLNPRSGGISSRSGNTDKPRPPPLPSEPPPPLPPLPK

[2] = concentrations of 125 nM or higher

SMILES: COc1cc(F)ccc1-c1cc(Nc2cc(CS(C)(=N)=O)ccn2)ncc1F (centres unmarked) [Enitociclib]
- EC50 (HS-SY-II; enitociclib + 1 nM INBRX-109): 89.1 nM
- Max Cytotox (HS-SY-II; enitociclib + 1 nM INBRX-109): 94%
- EC50 (HS-SY-II; enitociclib only): 74 nM
- Max Cytotox at 125 nM (HS-SY-II; enitociclib only): 73.2%
- EC50 (CAL-78; enitociclib + 1 nM INBRX-109): 108 nM
- Max Cytotox (CAL-78; enitociclib + 1 nM INBRX-109): 90.8%
- EC50 (CAL-78; enitociclib only): 144 nM
- Max Cytotox at 125 nM (CAL-78; enitociclib only): 10.9%
- EC50 (H-EMC-SS; enitociclib + 1 nM INBRX-109): 114 nM
- Max Cytotox (H-EMC-SS; enitociclib + 1 nM INBRX-109): 99.2%
- EC50 (H-EMC-SS; enitociclib only): 124 nM
- Max Cytotox at 125 nM (H-EMC-SS; enitociclib only): 15.8%
- cell killing by the combination [1]: increased cell killing on nearly every cancer cell line tested
- combination effect (shift in the killing curves of INBRX-109) [1, 2]: synergistic effect
- EC50 (SW620; enitociclib + 1 nM INBRX-109): 39.3 nM
- Max Cytotox (SW620; enitociclib + 1 nM INBRX-109): 97.6%
- EC50 (SW620; enitociclib only): 25.8 nM
- Max Cytotox at 125 nM (SW620; enitociclib only): 27.3%
- EC50 (SW1353; enitociclib + 1 nM INBRX-109): 103 nM
- Max Cytotox (SW1353; enitociclib + 1 nM INBRX-109): 64.6%
- EC50 (SW1353; enitociclib only): 102 nM
- Max Cytotox at 125 nM (SW1353; enitociclib only): 28.0%
- EC50 (OUMS-27; enitociclib + 1 nM INBRX-109): 90.4 nM
- Max Cytotox (OUMS-27; enitociclib + 1 nM INBRX-109): 81%
- EC50 (OUMS-27; enitociclib only): 51 nM
- Max Cytotox at 125 nM (OUMS-27; enitociclib only): 25.6%

SMILES: COC[C@@H](C)N[C@H]1CC[C@H](Nc2cc(-c3cccc(NCC4(C#N)CCOCC4)n3)c(Cl)cn2)CC1 [NVP-2]
- EC50 (CAL-78; NVP-2 + 1 nM INBRX-109): 26.4 nM
- Max Cytotox (CAL-78; NVP-2 + 1 nM INBRX-109): 92.4%
- EC50 (CAL-78; NVP-2 only): 23.2 nM
- Max Cytotox at 125 nM (CAL-78; NVP-2 only): 42.2%
- EC50 (H-EMC-SS; NVP-2 + 1 nM INBRX-109): 24.5 nM
- Max Cytotox (H-EMC-SS; NVP-2 + 1 nM INBRX-109): 98.7%
- EC50 (H-EMC-SS; NVP-2 only): 23.5 nM
- Max Cytotox at 125 nM (H-EMC-SS; NVP-2 only): 46.4%
- cell killing by the combination [1]: increased cell killing on nearly every cancer cell line tested
- combination effect (shift in the killing curves of INBRX-109) ([1]; concentrations higher than 25 nM): synergistic effect
- EC50 (SW620; NVP-2 + 1 nM INBRX-109): 4.91 nM
- Max Cytotox (SW620; NVP-2 + 1 nM INBRX-109): 98.7%
- EC50 (SW620; NVP-2 only): 12.6 nM
- Max Cytotox at 125 nM (SW620; NVP-2 only): 39.5%
- EC50 (SW1353; NVP-2 + 1 nM INBRX-109): 22.3 nM
- Max Cytotox (SW1353; NVP-2 + 1 nM INBRX-109): 79.5%
- EC50 (SW1353; NVP-2 only): 30.6 nM
- Max Cytotox at 125 nM (SW1353; NVP-2 only): 52.8%
- EC50 (OUMS-27; NVP-2 + 1 nM INBRX-109): 16.3 nM
- Max Cytotox (OUMS-27; NVP-2 + 1 nM INBRX-109): 88.5%
- EC50 (OUMS-27; NVP-2 only): 9 nM
- Max Cytotox at 125 nM (OUMS-27; NVP-2 only): 20.4%

SMILES: CN1CC[C@H](c2c(O)cc(O)c3c(=O)cc(-c4ccccc4Cl)oc23)[C@H](O)C1 [Flavopiridol]
- EC50 (HS-SY-II; flavopiridol + 1 nM INBRX-109): 103 nM
- Max Cytotox (HS-SY-II; flavopiridol + 1 nM INBRX-109): 95.1%
- EC50 (HS-SY-II; flavopiridol only): 108 nM
- Max Cytotox at 125 nM (HS-SY-II; flavopiridol only): 55.8%
- EC50 (CAL-78; flavopiridol + 1 nM INBRX-109): 115 nM
- EC50 (CAL-78; flavopiridol only): 146 nM
- Max Cytotox at 125 nM (CAL-78; flavopiridol only): 10.9%
- EC50 (H-EMC-SS; flavopiridol + 1 nM INBRX-109): 53.9 nM
- Max Cytotox (H-EMC-SS; flavopiridol + 1 nM INBRX-109): 99%
- EC50 (H-EMC-SS; flavopiridol only): 114 nM
- Max Cytotox at 125 nM (H-EMC-SS; flavopiridol only): 21.9%
- cell killing by the combination [1]: increased cell killing on nearly every cancer cell line tested
- combination effect (shift in the killing curves of INBRX-109) [1, 2]: synergistic effect
- EC50 (SW620; flavopiridol + 1 nM INBRX-109): 50.2 nM
- Max Cytotox (SW620; flavopiridol + 1 nM INBRX-109): 98.7%
- EC50 (SW620; flavopiridol only): Unstable
- Max Cytotox at 125 nM (SW620; flavopiridol only): 21.7%
- EC50 (SW1353; flavopiridol + 1 nM INBRX-109): 133 nM
- Max Cytotox (SW1353; flavopiridol + 1 nM INBRX-109): 88.3%
- EC50 (SW1353; flavopiridol only): 202 nM
- Max Cytotox at 125 nM (SW1353; flavopiridol only): 21.7%
- EC50 (OUMS-27; flavopiridol + 1 nM INBRX-109): 118 nM
- Max Cytotox (OUMS-27; flavopiridol + 1 nM INBRX-109): 87.8%
- EC50 (OUMS-27; flavopiridol only): 109 nM
- Max Cytotox at 125 nM (OUMS-27; flavopiridol only): 24.0%

SMILES: N[C@H]1CC[C@H](Nc2cc(-c3cccc(NCc4cccc(F)c4)n3)c(Cl)cn2)CC1 [i-CDK9]
- selectivity for CDK9 over other CDKs (CDK9): 600 fold
